# Data from patent US11707539B2, “FAP-targeted radiopharmaceuticals and imaging agents, and uses related thereto” (Trustees of Tufts College, priority 2020, dated 2023).
# System: HEK-mFAP tumor-bearing mice
# Assay: 68Ga biodistribution, gamma counting after 50 min uptake
# Assay type: in vivo, mouse
# Method: Part 2 Biodistribution. The aim of the study is to assess ^68Ga-6555 biodistribution in HEK-mFAP tumor-bearing mice. HEK-mFAP tumor-bearing mice were used for the study (N=3). The mice were injected with ˜8 MBq (7.3-8.5 MBq range) of ^68Ga-6555 (prepared as per Example 20; IV through the tail vein using a catheter mounted with a 30 Ga needle). After 50 min uptake time (injection was performed under anesthasia using isoflurane inhalant, and stayed under anesthesia for 50 min), the mice were euthanized (with CO2) and tissues were collected (blood via cardiac puncture, heart, lungs, liver, spleen, pancreas, stomach, small intestine, kidney, muscle, femur, bone, skin, brain, tumor). After excision, the tissue samples were counted for gallium-68 radioactivity on a Cobra-II Auto-Gamma counter (Packard Instruments, Meriden, CTA), weighted, and data were expressed as % injected dose per gram (% ID/g).
# Conducted as per Example 24 using ^68Ga-6952 prepared as per Example 22.
# Biodistribution. The mice were injected with ˜8.6 MBq (7.6-10.0 MBq range). The majority of activity was located in the tumor (average % ID/g of 8.8). The kidney has the next largest amount of activity (average % ID/g of 2.18). […]
structure (smiles),measurement,setting,value
C[C@@H](NC(=O)c1ccc(CNC(=O)CN2CCN3CCN4CCN(CC2)CC(=O)[O][Ga]([O]C(=O)C3)[O]C(=O)C4)cc1)C(=O)N1CCC[C@H]1B(O)O [[^68Ga]-6555],uptake in all other selected tissues,"50 min uptake time, IV",low level of uptake comparable to the muscle
same,"% ID/g Blood, AVERAGE","Blood, 50 min uptake after IV injection, average of N=3 mice",0.57 % ID/g
same,"% ID/g Blood, mouse #002","Blood, 50 min uptake, individual mouse #002",0.67 % ID/g
same,"% ID/g Blood, mouse #005","Blood, 50 min uptake, individual mouse #005",0.38 % ID/g
same,"% ID/g Blood, mouse #009","Blood, 50 min uptake, individual mouse #009",0.64 % ID/g
same,"% ID/g Bone (femur), AVERAGE","Bone (femur), 50 min uptake after IV injection, average of N=3 mice",0.33 % ID/g
same,"% ID/g Bone (femur), mouse #002","Bone (femur), 50 min uptake, individual mouse #002",0.31 % ID/g
same,"% ID/g Bone (femur), mouse #005","Bone (femur), 50 min uptake, individual mouse #005",0.50 % ID/g
same,"% ID/g Bone (femur), mouse #009","Bone (femur), 50 min uptake, individual mouse #009",0.20 % ID/g
same,"% ID/g Brain, AVERAGE","Brain, 50 min uptake after IV injection, average of N=3 mice",0.07 % ID/g
same,"% ID/g Brain, mouse #002","Brain, 50 min uptake, individual mouse #002",0.03 % ID/g
same,"% ID/g Brain, mouse #005","Brain, 50 min uptake, individual mouse #005",0.07 % ID/g
same,"% ID/g Brain, mouse #009","Brain, 50 min uptake, individual mouse #009",0.10 % ID/g
same,"% ID/g Heart, AVERAGE","Heart, 50 min uptake after IV injection, average of N=3 mice",0.34 % ID/g
same,"% ID/g Heart, mouse #002","Heart, 50 min uptake, individual mouse #002",0.41 % ID/g
same,"% ID/g Heart, mouse #005","Heart, 50 min uptake, individual mouse #005",0.17 % ID/g
same,"% ID/g Heart, mouse #009","Heart, 50 min uptake, individual mouse #009",0.43 % ID/g
same,"% ID/g Kidneys, AVERAGE","Kidneys, 50 min uptake after IV injection, average of N=3 mice",1.37 % ID/g
same,"% ID/g Kidneys, mouse #002","Kidneys, 50 min uptake, individual mouse #002",1.50 % ID/g
same,"% ID/g Kidneys, mouse #005","Kidneys, 50 min uptake, individual mouse #005",1.03 % ID/g
same,"% ID/g Kidneys, mouse #009","Kidneys, 50 min uptake, individual mouse #009",1.58 % ID/g
same,"% ID/g Liver, AVERAGE","Liver, 50 min uptake after IV injection, average of N=3 mice",1.01 % ID/g
same,"% ID/g Liver, mouse #002","Liver, 50 min uptake, individual mouse #002",1.00 % ID/g
same,"% ID/g Liver, mouse #005","Liver, 50 min uptake, individual mouse #005",0.79 % ID/g
same,"% ID/g Liver, mouse #009","Liver, 50 min uptake, individual mouse #009",1.23 % ID/g
same,"% ID/g Lungs, AVERAGE","Lungs, 50 min uptake after IV injection, average of N=3 mice",0.56 % ID/g
same,"% ID/g Lungs, mouse #002","Lungs, 50 min uptake, individual mouse #002",0.62 % ID/g
same,"% ID/g Lungs, mouse #005","Lungs, 50 min uptake, individual mouse #005",0.39 % ID/g
same,"% ID/g Lungs, mouse #009","Lungs, 50 min uptake, individual mouse #009",0.67 % ID/g
same,"% ID/g Muscle, AVERAGE","Muscle, 50 min uptake after IV injection, average of N=3 mice",0.74 % ID/g
same,"% ID/g Muscle, mouse #002","Muscle, 50 min uptake, individual mouse #002",0.09 % ID/g
same,"% ID/g Muscle, mouse #005","Muscle, 50 min uptake, individual mouse #005",0.21 % ID/g
same,"% ID/g Muscle, mouse #009","Muscle, 50 min uptake, individual mouse #009",1.92 % ID/g
same,"% ID/g Pancreas, AVERAGE","Pancreas, 50 min uptake after IV injection, average of N=3 mice",0.92 % ID/g
same,"% ID/g Pancreas, mouse #002","Pancreas, 50 min uptake, individual mouse #002",1.41 % ID/g
same,"% ID/g Pancreas, mouse #005","Pancreas, 50 min uptake, individual mouse #005",0.93 % ID/g
same,"% ID/g Pancreas, mouse #009","Pancreas, 50 min uptake, individual mouse #009",0.42 % ID/g
same,"% ID/g Skin, AVERAGE","Skin, 50 min uptake after IV injection, average of N=3 mice",0.28 % ID/g
same,"% ID/g Skin, mouse #002","Skin, 50 min uptake, individual mouse #002",0.31 % ID/g
same,"% ID/g Skin, mouse #005","Skin, 50 min uptake, individual mouse #005",0.27 % ID/g
same,"% ID/g Skin, mouse #009","Skin, 50 min uptake, individual mouse #009",0.25 % ID/g
same,"% ID/g Small intestine, AVERAGE","Small intestine, 50 min uptake after IV injection, average of N=3 mice",0.31 % ID/g
same,"% ID/g Small intestine, mouse #002","Small intestine, 50 min uptake, individual mouse #002",0.39 % ID/g
same,"% ID/g Small intestine, mouse #005","Small intestine, 50 min uptake, individual mouse #005",0.19 % ID/g
same,"% ID/g Small intestine, mouse #009","Small intestine, 50 min uptake, individual mouse #009",0.35 % ID/g
same,"% ID/g Spleen, AVERAGE","Spleen, 50 min uptake after IV injection, average of N=3 mice",0.77 % ID/g
same,"% ID/g Spleen, mouse #002","Spleen, 50 min uptake, individual mouse #002",0.23 % ID/g
same,"% ID/g Spleen, mouse #005","Spleen, 50 min uptake, individual mouse #005",0.74 % ID/g
same,"% ID/g Spleen, mouse #009","Spleen, 50 min uptake, individual mouse #009",1.34 % ID/g
same,"% ID/g Stomach, AVERAGE","Stomach, 50 min uptake after IV injection, average of N=3 mice",0.20 % ID/g
same,"% ID/g Stomach, mouse #002","Stomach, 50 min uptake, individual mouse #002",0.07 % ID/g
same,"% ID/g Stomach, mouse #005","Stomach, 50 min uptake, individual mouse #005",0.21 % ID/g
same,"% ID/g Stomach, mouse #009","Stomach, 50 min uptake, individual mouse #009",0.32 % ID/g
same,"% ID/g Tumor, AVERAGE","Tumor (HEK-mFAP), 50 min uptake after IV injection, average of N=3 mice",10.10 % ID/g
same,"% ID/g Tumor, mouse #002","Tumor (HEK-mFAP), 50 min uptake, individual mouse #002",10.01 % ID/g
same,"% ID/g Tumor, mouse #005","Tumor (HEK-mFAP), 50 min uptake, individual mouse #005",8.47 % ID/g
same,"% ID/g Tumor, mouse #009","Tumor (HEK-mFAP), 50 min uptake, individual mouse #009",11.83 % ID/g
same,average % ID/g,"kidney, 50 min uptake time, IV",1.37 % ID/g
same,average % ID/g,"tumor, 50 min uptake time, IV",10.1 % ID/g
